This is an account of results in ChEMBL document CHEMBL1135841, “Use of parallel-synthesis combinatorial libraries for rapid identification of potent FKBP12 inhibitors” (Bioorg Med Chem Lett, 2002).

The assay deals with Peptidyl-prolyl cis-trans isomerase FKBP1A (Homo sapiens, UniProt P62942). Briefly: Inhibition of peptidyl-prolyl isomerase (PPIase, or rotamase) activity of FK506 binding protein 12.
Sequence of Peptidyl-prolyl cis-trans isomerase FKBP1A (P62942 whole entry): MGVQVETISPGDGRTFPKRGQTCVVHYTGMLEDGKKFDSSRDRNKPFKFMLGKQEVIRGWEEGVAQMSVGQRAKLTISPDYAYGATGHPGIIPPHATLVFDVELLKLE
As to `O=C(OCCc1ccccc1)[C@@H]1CCCN1C(=S)NC12C[C@H]3C[C@@H](C1)C[C@@H](C2)C3`, the affinity corresponds to a Ki of 47000 nM. In the case of `O=C(OCCCCc1ccccc1)[C@@H]1CCCN1C(=O)NC12C[C@H]3C[C@@H](C1)C[C@@H](C2)C3` it was 470 nM. In the case of `Cc1ccc(S(=O)(=O)N2CCCCC2C(=O)OCCCc2ccc(Cl)cc2)cc1` (stereo not given) it was 4400 nM. Consider `O=C(OCCCc1ccc(Br)cc1)C1CCCCN1S(=O)(=O)Cc1ccccc1` (stereo not given), for which the Ki – broadly, the dissociation constant of the complex between target and ligand, obtained from inhibition or displacement – came out at 2700 nM. On to `C[C@@H](NC(=O)N1CCC[C@H]1C(=O)OCCCc1ccc(Br)cc1)c1ccccc1`, for which the Ki is over 10000 nM.

In turn, `O=C(OCCCc1ccc(F)cc1)[C@@H]1CCCN1/C(S)=N/C12C[C@H]3C[C@@H](C1)C[C@@H](C2)C3` displayed a Ki of 850 nM. For `COc1cc(CCCOC(=O)C2CCCCN2S(=O)(=O)Cc2ccccc2)cc(OC)c1` (stereo not given), affinity was put at a Ki of 120 nM.

The compound `C[C@@H](NC(=O)N1CCC[C@H]1C(=O)OCCCc1ccc(F)cc1)c1ccccc1` had a Ki of 4400 nM. In the case of `O=C(OCCCc1ccc(F)cc1)C1CCCCN1S(=O)(=O)c1ccccc1` (stereo not given) it was 740 nM; in that of `O=C(OCCCc1ccccc1)[C@@H]1CCCN1C(=O)Nc1ccccc1`, 820 nM.

Compound `O=C(OCc1ccccc1)[C@@H]1CCCN1C(=O)Nc1ccccc1` came in with a Ki of 24000 nM.

For `O=C(OCCCc1ccc(Cl)cc1)C1CCCCN1S(=O)(=O)Cc1ccccc1` (stereo not given), affinity was put at a Ki of 420 nM. On to `O=C(OCCCc1ccc(F)cc1)C1CCCCN1S(=O)(=O)Cc1ccccc1` (stereo not given), for which the affinity, expressed as Ki, was 320 nM. In the case of `COc1ccc(CCCOC(=O)C2CCCCN2S(=O)(=O)Cc2ccccc2)cc1` (stereo not given) it was 92 nM; in that of `COc1ccc(CCCOC(=O)C2CCCCN2S(=O)(=O)c2ccccc2)cc1` (stereo not given), 260 nM. `O=C(OCCCc1ccccc1)[C@@H]1CCCN1C(=O)NC12C[C@H]3C[C@@H](C1)C[C@@H](C2)C3`: the Ki is 1000 nM. In the case of `O=C(OCCCc1ccc(Cl)cc1)C1CCCCN1S(=O)(=O)c1ccccc1` (stereo not given) it was 3800 nM.

With `COc1ccc(CCCOC(=O)[C@@H]2CCCN2/C(S)=N/C2CCCCC2)cc1OC`, the Ki is 86 nM. In the case of `O=C(OCCCc1ccc(Cl)cc1)[C@@H]1CCCN1C(=O)NC12C[C@H]3C[C@@H](C1)C[C@@H](C2)C3` it was 2300 nM; in that of `COc1ccc(CCCOC(=O)C2CCCCN2S(=O)(=O)Cc2ccccc2)cc1OC` (stereo not given), 47 nM. In the case of `O=C(OCCCCc1ccccc1)[C@@H]1CCCN1C(=S)NC12C[C@H]3C[C@@H](C1)C[C@@H](C2)C3` it was 7200 nM; in that of `O=C(OCCCc1ccc(F)cc1)[C@@H]1CCCN1C(=O)NC12C[C@H]3C[C@@H](C1)C[C@@H](C2)C3`, 1200 nM.

Compound `C[C@@H](NC(=O)N1CCC[C@H]1C(=O)OCCCc1ccc(Cl)cc1)c1ccccc1` gave a Ki of 6000 nM.

Regarding `O=C(OCCCc1ccccc1)[C@@H]1CCCN1C(=S)NC12C[C@H]3C[C@@H](C1)C[C@@H](C2)C3`, the affinity, expressed as Ki, was 5200 nM. In turn, `O=C(OCCCc1ccc(Br)cc1)C1CCCCN1S(=O)(=O)c1ccccc1` (stereo not given) displayed a Ki of 8000 nM. `O=C(OCCc1ccccc1)[C@@H]1CCCN1C(=O)NC12C[C@H]3C[C@@H](C1)C[C@@H](C2)C3` came in with a Ki of 1300 nM.

The compound `COc1cc(CCCOC(=O)C2CCCCN2S(=O)(=O)c2ccccc2)cc(OC)c1` (stereo not given) came in with a Ki of 480 nM. Turning to `O=C(OCCCc1ccc(Cl)cc1)[C@@H]1CCCN1C(=S)NC12C[C@H]3C[C@@H](C1)C[C@@H](C2)C3`, affinity was put at a Ki of 1500 nM.

`COc1ccc(CCCOC(=O)C2CCCCN2C(=O)NC23CC4CC(CC(C4)C2)C3)c(OC)c1` (stereo not given) yielded a Ki of 12 nM. `O=C(OCCCc1ccc(Br)cc1)[C@@H]1CCCN1C(=S)NC12C[C@H]3C[C@@H](C1)C[C@@H](C2)C3` showed a Ki of 6300 nM. In the case of `O=C(OCc1ccccc1)[C@@H]1CCCN1C(=O)NC12C[C@H]3C[C@@H](C1)C[C@@H](C2)C3` it was 2100 nM; in that of `O=C(OCCCc1ccc(Br)cc1)[C@@H]1CCCN1C(=O)NC12C[C@H]3C[C@@H](C1)C[C@@H](C2)C3`, 3100 nM.

`COc1ccc(CCCOC(=O)C2CCCCN2S(=O)(=O)c2ccccc2)cc1OC` (stereo not given) had a Ki of 180 nM. `COc1ccc(CCCOC(=O)C2CCCCN2S(=O)(=O)c2ccc(C)cc2)cc1` (stereo not given): the Ki was 220 nM.

The compound `Cc1ccc(S(=O)(=O)N2CCCCC2C(=O)OCCCc2ccc(F)cc2)cc1` (stereo not given) showed a Ki of 1400 nM.

In turn, `O=C(OCCc1ccccc1)[C@@H]1CCCN1C(=O)Nc1ccccc1` gave a Ki of 1300 nM. Turning to `COc1cc(CCCOC(=O)C2CCCCN2S(=O)(=O)c2ccc(C)cc2)cc(OC)c1` (stereo not given), affinity was put at a Ki of 400 nM. Turning to `O=C(OCc1ccccc1)[C@@H]1CCCN1C(=S)NC12C[C@H]3C[C@@H](C1)C[C@@H](C2)C3`, the Ki worked out at 18000 nM. In the case of `COc1ccc(CCCOC(=O)[C@@H]2CCCN2S(=O)(=O)Cc2ccccc2)cc1` it was 22 nM. In turn, `COc1ccc(CCCOC(=O)C2CCCCN2C(=O)NC23CC4CC(CC(C4)C2)C3)cc1OC` (stereo not given) registered a Ki of 32 nM.
